Experimental data taken from patent US20220119354A1, “DIAMINO-SUBSTITUTED PYRIDINES AND PYRIMIDINES AS HERBICIDES” (FMC Corporation, priority 2019, published 2022).

What was measured:
Assay type in all cases: in vivo
[1] = test system: barnyardgrass (Echinochloa crus-galli); test: Test A preemergence, barnyardgrass; conditions: 0 to 100 scale, 0 is no effect, 100 is complete control
Outline: (§1)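 Greenhouse test; plants at one- to two-leaf stage (2–10 cm) sprayed postemergence with compound in non-phytotoxic solvent/surfactant mix, or soil sprayed preemergence after seeding in loam–sand blend. Injury rated visually versus untreated controls after about 10 d, 0 (no effect) to 100 (complete control).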

kochia (Kochia scoparia) [2] = test: Test A preemergence, kochia; conditions: 0 to 100 scale, 0 is no effect, 100 is complete control
Outline: as §1

[3] = test system: ragweed (common ragweed, Ambrosia elatior); test: Test A preemergence, ragweed; conditions: 0 to 100 scale, 0 is no effect, 100 is complete control
Outline: as §1

[4] = test system: ryegrass, Italian (Lolium multiflorum); test: Test A preemergence, Italian ryegrass; conditions: 0 to 100 scale, 0 is no effect, 100 is complete control
Outline: as §1

[5] = test system: foxtail, giant (Setaria faberii); test: Test A preemergence, giant foxtail; conditions: 0 to 100 scale, 0 is no effect, 100 is complete control
Outline: as §1

[6] = test system: pigweed (Amaranthus retroflexus); test: Test A preemergence, pigweed; conditions: 0 to 100 scale, 0 is no effect, 100 is complete control
Outline: as §1

[7] = test system: barnyardgrass (Echinochloa crus-galli); test: Test A postemergence, barnyardgrass; conditions: 0 to 100 scale, 0 no effect, 100 complete control
Outline: as §1

kochia (Kochia scoparia) [8] = test: Test A postemergence, kochia; conditions: 0 to 100 scale, 0 no effect, 100 complete control
Outline: as §1

[9] = test system: ragweed (common ragweed, Ambrosia elatior); test: Test A postemergence, ragweed; conditions: 0 to 100 scale, 0 no effect, 100 complete control
Outline: as §1

[10] = test system: ryegrass, Italian (Lolium multiflorum); test: Test A postemergence, Italian ryegrass; conditions: 0 to 100 scale, 0 no effect, 100 complete control
Outline: as §1

[11] = test system: foxtail, giant (Setaria faberii); test: Test A postemergence, giant foxtail; conditions: 0 to 100 scale, 0 no effect, 100 complete control
Outline: as §1

[12] = test system: pigweed (Amaranthus retroflexus); test: Test A postemergence, pigweed; conditions: 0 to 100 scale, 0 no effect, 100 complete control
Outline: as §1

[13] = test system: wheat (Triticum aestivum); test: Test A postemergence, wheat; conditions: 0 to 100 scale, 0 no effect, 100 complete control
Outline: as §1

corn (Zea mays) = test: Test A postemergence, corn; conditions: 0 to 100 scale, 0 no effect, 100 complete control
Outline: as §1

[14] = test system: blackgrass (Alopecurus myosuroides); test: Test A postemergence, blackgrass; conditions: 0 to 100 scale, 0 no effect, 100 complete control
Outline: as §1

[15] = test system: galium (catchweed bedstraw, Galium aparine); test: Test A postemergence, galium; conditions: 0 to 100 scale, 0 no effect, 100 complete control
Outline: as §1

rice (Oryza sativa) = test: Test B flooded paddy test, rice; conditions: Flood, 250 g ai/ha, applied to paddy water, 2-leaf stage, visual evaluation after 13 to 15 d
Outline: (§2)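 Application was made into paddy water of pots flooded 3 cm deep at treatment, with seedlings at the 2-leaf stage. That flood level was kept throughout, and plants stayed under glass 13 to 15 d before visual assessment on a 0–100 control scale.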

[16] = test system: sedge, umbrella (small-flower umbrella sedge, Cyperus difformis); test: Test B flooded paddy test, umbrella sedge; conditions: Flood, 250 g ai/ha, applied to paddy water, 2-leaf stage, visual evaluation after 13 to 15 d
Outline: as §2

[17] = test system: ducksalad (Heteranthera limosa); test: Test B flooded paddy test, ducksalad; conditions: Flood, 250 g ai/ha, applied to paddy water, 2-leaf stage, visual evaluation after 13 to 15 d
Outline: as §2

[18] = test system: barnyardgrass (Echinochloa crus-galli); test: Test B flooded paddy test, barnyardgrass; conditions: Flood, 250 g ai/ha, applied to paddy water, 2-leaf stage, visual evaluation after 13 to 15 d
Outline: as §2

Structure (SMILES) | Barnyardgrass plant response rating ([1]; 125 g ai/ha) | Barnyardgrass plant response rating ([1]; 500 g ai/ha) | Kochia plant response rating (kochia (Kochia scoparia) [2]; 125 g ai/ha) | Kochia plant response rating (kochia (Kochia scoparia) [2]; 500 g ai/ha) | Ragweed plant response rating ([3]; 125 g ai/ha) | Ragweed plant response rating ([3]; 500 g ai/ha) | Ryegrass, Italian plant response rating ([4]; 125 g ai/ha) | Ryegrass, Italian plant response rating ([4]; 500 g ai/ha) | Foxtail, Giant plant response rating ([5]; 125 g ai/ha) | Foxtail, Giant plant response rating ([5]; 500 g ai/ha) | Pigweed plant response rating ([6]; 125 g ai/ha) | Pigweed plant response rating ([6]; 500 g ai/ha) | Plant response rating, Barnyardgrass ([7]; 125 g ai/ha) | Plant response rating, Barnyardgrass ([7]; 500 g ai/ha) | Plant response rating, Kochia (kochia (Kochia scoparia) [8]; 125 g ai/ha) | Plant response rating, Kochia (kochia (Kochia scoparia) [8]; 500 g ai/ha) | Plant response rating, Ragweed ([9]; 125 g ai/ha) | Plant response rating, Ragweed ([9]; 500 g ai/ha) | Plant response rating, Ryegrass, Italian ([10]; 125 g ai/ha) | Plant response rating, Ryegrass, Italian ([10]; 500 g ai/ha) | other results
C[C@H](Nc1ncc(C(F)(F)F)c(N)n1)c1cc2c(F)cccc2o1 [Compound 74] | 0 | 0 | 0 | 0 | 0 | 40 | 0 | 0 | 0 | 0 | 0 | 10 | 0 | 0 | 20 | 60 | 20 | 30 | 0 | 0 | Plant response rating, Foxtail, Giant ([11]; 125 g ai/ha): 0; Plant response rating, Foxtail, Giant ([11]; 500 g ai/ha): 0; Plant response rating, Pigweed ([12]; 125 g ai/ha): 60; Plant response rating, Pigweed ([12]; 500 g ai/ha): 90; Plant response rating, Wheat ([13]; 125 g ai/ha): 0; Plant response rating, Wheat ([13]; 500 g ai/ha): 0; Plant response rating, Corn (corn (Zea mays); 125 g ai/ha): 0; Plant response rating, Corn (corn (Zea mays); 500 g ai/ha): 0; Plant response rating, Blackgrass ([14]; 125 g ai/ha): 0; Plant response rating, Blackgrass ([14]; 500 g ai/ha): 0; Plant response rating, Galium ([15]; 125 g ai/ha): 0; Plant response rating, Galium ([15]; 500 g ai/ha): 50; Plant response rating, Rice (0 to 100 scale, 0 is no effect, 100 is complete control) (rice (Oryza sativa)): 0; Plant response rating, Sedge, Umbrella (0 to 100 scale, 0 is no effect, 100 is complete control) [16]: 0; Plant response rating, Ducksalad (0 to 100 scale, 0 is no effect, 100 is complete control) [17]: 0; Plant response rating, Barnyardgrass (0 to 100 scale, 0 is no effect, 100 is complete control) [18]: 0
C[C@H](Nc1ncc(C(F)(F)F)c(N)n1)c1cc2ccccc2n1C [Compound 76] | 0 | 0 | 0 | 0 | 0 | 0 | 0 | 30 | 0 | 0 | 0 | 0 | 0 | 0 | 0 | 0 | 0 | 30 | 0 | 0 | Plant response rating, Foxtail, Giant ([11]; 125 g ai/ha): 0; Plant response rating, Foxtail, Giant ([11]; 500 g ai/ha): 0; Plant response rating, Pigweed ([12]; 125 g ai/ha): 0; Plant response rating, Pigweed ([12]; 500 g ai/ha): 0; Plant response rating, Wheat ([13]; 125 g ai/ha): 0; Plant response rating, Wheat ([13]; 500 g ai/ha): 0; Plant response rating, Corn (corn (Zea mays); 125 g ai/ha): 0; Plant response rating, Corn (corn (Zea mays); 500 g ai/ha): 0; Plant response rating, Blackgrass ([14]; 125 g ai/ha): 0; Plant response rating, Blackgrass ([14]; 500 g ai/ha): 0; Plant response rating, Galium ([15]; 125 g ai/ha): 30; Plant response rating, Galium ([15]; 500 g ai/ha): 30; Plant response rating, Rice (0 to 100 scale, 0 is no effect, 100 is complete control) (rice (Oryza sativa)): 0; Plant response rating, Sedge, Umbrella (0 to 100 scale, 0 is no effect, 100 is complete control) [16]: 0; Plant response rating, Ducksalad (0 to 100 scale, 0 is no effect, 100 is complete control) [17]: 0; Plant response rating, Barnyardgrass (0 to 100 scale, 0 is no effect, 100 is complete control) [18]: 0
